Measured values: patent EP4782449A1, “TRICYCLIC PYRIDINE COMPOUND ACTING AS SARM1 ENZYME ACTIVITY INHIBITOR, AND USE THEREOF” (Artivila (ShenZhen) Innovation Center, Ltd., priority 2023, dated 2025)

Tests used:
[1] = system: dorsal root ganglion explants; experiment: Axonal Wallerian degeneration assay in mouse DRG explant culture; assay type: cell-based, C57BL/6 male mice; settings: 10 µM test compound, 2 hours pretreatment, axons transected, images at 0 hour and 24 hours
From the text: The experimental method was based on Gerdts J et al. (Gerdts J, Sasaki Y, Vohra B, Marasa J, Milbrandt J. Image-based screening identifies novel roles for IkappaB kinase and glycogen synthase kinase 3 in axonal degeneration. J Biol Chem. 2011 Aug 12;286(32):28011-8).
Dorsal root ganglia were dissected from 2-month-old C57BL/6 male mice and placed in 35 mm culture dishes containing pre-cooled HBSS buffer. Excess tissue from each dorsal root ganglion was removed and cut into 2-3 explants using a scalpel, and the explants were planted in wells of a 96-well plate coated with 100 ng/mL Matrigel (Corning). 100 µL of DRG culture medium (Neurobasal medium (Gibco) containing 2% B-27 (Gibco), 1% GlutaMax (Gibco), and 10 ng/mL NGF (MCE)) was added, then cultured in a 37°C incubator for one week, with medium change on day 4, and experiments were performed on day 8.
0.1 µL of 10 mM test compound was dissolved in 100 µL DRG culture medium to prepare new culture medium containing 10 µM test compound. The culture medium in the 96-well plate was aspirated and new culture medium containing the test compound was added. Then the dorsal root ganglion explants were incubated with the medium in a 37°C incubator for 2 hours for pre-protection. After 2-hour pretreatment, a glass electrode was used to transect axons in the area near the tissue block, and bright-field images of axons in the same area were captured at 0 hour and 24 hours post axonal degeneration using a 20x objective lens of a microscope (Olympus). Axonal integrity was evaluated using an in-house developed script.

SARM1 = target: T1, SARM1 (Homo sapiens, UniProt Q6SZW1); experiment: In vitro biochemical assay for inhibiting SARM1 enzyme activity (PC6 fluorescence, NADase); settings: full-length SARM1 from transfected HEK293 cells; 50 µM NAD, 50 µM PC6, 50 µM NMN activator; room temperature, 30 minutes; read-out: IC50
T1 construct: inventors produced full-length SARM1 for NAD enzyme activity experiments, and used it for screening; His (C); made in house; host or cells: HEK293 cells, transient transfection; supernatant of digitonin lysate, no further purification described
T1 sequence (Q6SZW1 28-724): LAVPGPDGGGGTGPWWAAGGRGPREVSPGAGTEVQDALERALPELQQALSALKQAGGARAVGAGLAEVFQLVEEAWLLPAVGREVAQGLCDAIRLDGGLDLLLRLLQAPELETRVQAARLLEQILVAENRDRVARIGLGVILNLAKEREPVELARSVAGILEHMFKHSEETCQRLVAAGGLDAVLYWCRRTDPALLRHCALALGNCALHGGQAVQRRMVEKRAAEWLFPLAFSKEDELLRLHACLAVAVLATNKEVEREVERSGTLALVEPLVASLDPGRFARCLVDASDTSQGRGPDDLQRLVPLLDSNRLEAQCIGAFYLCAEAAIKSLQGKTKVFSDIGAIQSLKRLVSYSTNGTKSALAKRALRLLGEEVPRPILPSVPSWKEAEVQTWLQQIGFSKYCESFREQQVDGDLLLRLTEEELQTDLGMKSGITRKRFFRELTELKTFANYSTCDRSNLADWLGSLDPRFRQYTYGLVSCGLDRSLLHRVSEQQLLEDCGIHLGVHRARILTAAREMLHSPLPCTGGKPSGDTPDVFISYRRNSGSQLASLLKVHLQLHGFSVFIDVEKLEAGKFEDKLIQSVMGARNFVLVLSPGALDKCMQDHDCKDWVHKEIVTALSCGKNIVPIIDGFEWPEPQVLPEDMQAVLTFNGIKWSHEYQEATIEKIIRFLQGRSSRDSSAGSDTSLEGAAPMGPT
Experimental: The gene sequence of SARM1 protein was amplified using PCR, and the PCR amplification product was constructed into pcDNA3.1-HIS-C plasmid. The above construction was completed by YouBio(Hunan, China). HEK293 cells were cultured in 10 cm dishes using DMEM, and the cells were transfected with 15 μg pcDNA3.1-SARM[…]-C expression plasmid on the following day. Cells were collected 48 hours after transfection, and SARM1 protein expressed in the cells was obtained by digitonin lysis for in vitro activity assay experiments. The specific procedure was as follows: Cells were digested with trypsin-EDTA, then centrifuged at 1000 rpm for 5 minutes, washed once with PBS, and then resuspended in PBS containing 100 μM digitonin, with 0.6 mL PBS for the cells in per 10 cm dish, and lysed for 5 minutes. […] Then the supernatant containing SARM1 protein was collected by centrifugation at 5000 rpm for 10 minutes. […] A group without inhibitor was used as control group. All mixtures were incubated at room temperature for 10 minutes. Then, 50 μM NAD and 50 μM PC6 as substrates and 50 μM NMN as an activator were added to the SARM1 protein incubated with the inhibitor, and the reaction was carried out at room temperature for 30 minutes. The concentrations of each component were the final concentrations in the reaction system. […] Finally, the reaction rate was used to represent the protein activity and calculate the half-maximal inhibitory concentration.

Structure (SMILES) | Degree of Protection Against Axonal Wallerian Degeneration [1] | IC50 (SARM1)
O=C1C(Cc2ccc3c(c2)CC3)CCN1c1ccc2c(c1)COc1cnccc1-2 (stereo not shown) [Compound 19] | A (substantial protection (A) >50%) | 1000 to 10000 nM
O=C(CCc1ccc(Cl)c(Cl)c1)Nc1ccc2c(c1)COc1cnccc1-2 [Compound 21] | A (substantial protection (A) >50%) | < 100 nM
O=C(CCc1ccc(Br)cc1)Nc1ccc2c(c1)COc1cnccc1-2 [Compound 22] | A (substantial protection (A) >50%) | 100 to 1000 nM
O=C(CCc1ccc(F)c(F)c1)Nc1ccc2c(c1)COc1cnccc1-2 [Compound 25] | A (substantial protection (A) >50%) | < 100 nM
O=C(CCc1cc(F)c(F)c(F)c1)Nc1ccc2c(c1)COc1cnccc1-2 [Compound 27] | B (partial protection (B): 20% to 50%) | < 100 nM
O=C(CCc1ccc(Cl)c(F)c1)Nc1ccc2c(c1)COc1cnccc1-2 [Compound 28] | A (substantial protection (A) >50%) | 100 to 1000 nM
O=C(CCc1ccc(F)cc1)Nc1ccc2c(c1)COc1cnccc1-2 [Compound 29, 3-(4-fluorophenyl)-N-(6H-isochromeno[3,4-c]pyridin-8-yl)propanamide] | A (substantial protection (A) >50%) | < 100 nM
N#Cc1ccc(CCC(=O)Nc2ccc3c(c2)COc2cnccc2-3)cc1F [Compound 30] | A (substantial protection (A) >50%) | 100 to 1000 nM
O=C(CCc1ccc(C(F)(F)F)cc1)Nc1ccc2c(c1)COc1cnccc1-2 [Compound 32] | B (partial protection (B): 20% to 50%) | 100 to 1000 nM
N#Cc1ccc(CCC(=O)Nc2ccc3c(c2)COc2cnccc2-3)cc1 [Compound 33] | A (substantial protection (A) >50%) | < 100 nM
O=C(CCc1cccc(F)c1)Nc1ccc2c(c1)COc1cnccc1-2 [Compound 34] | A (substantial protection (A) >50%) | < 100 nM
O=C(CCc1ccc(Cl)s1)Nc1ccc2c(c1)COc1cnccc1-2 [Compound 36] | A (substantial protection (A) >50%) | 1000 to 10000 nM
O=C(CCc1ccc(F)cc1F)Nc1ccc2c(c1)COc1cnccc1-2 [Compound 37] | A (substantial protection (A) >50%) | 100 to 1000 nM
O=C(CCc1cc(F)cc(F)c1)Nc1ccc2c(c1)COc1cnccc1-2 [Compound 39] | A (substantial protection (A) >50%) | < 100 nM
O=C(CCc1ccc(Cl)cc1F)Nc1ccc2c(c1)COc1cnccc1-2 [Compound 40] | A (substantial protection (A) >50%) | 1000 to 10000 nM
Cc1ccc(CCC(=O)Nc2ccc3c(c2)COc2cnccc2-3)cc1 [Compound 41] | A (substantial protection (A) >50%) | 100 to 1000 nM
O=C(CCc1ccc(Cl)cc1)Nc1ccc2c(c1)COc1cnccc1-2 [Compound 42, 3-(4-chlorophenyl)-N-(6H-isochromeno[3,4-c]pyridin-8-yl)propanamide] | A (substantial protection (A) >50%) | < 100 nM
O=C(NCc1ccc(F)cc1)Nc1ccc2c(c1)COc1cnccc1-2 [Compound 45, 1-(4-fluorobenzyl)-3-(6H-isochromeno[3,4-c]pyridin-8-yl)urea] | A (substantial protection (A) >50%) | < 100 nM

Structure (SMILES) | Degree of Protection Against Axonal Wallerian Degeneration [1] | IC50 (SARM1)
O=C(NCc1ccc(F)c(F)c1)Nc1ccc2c(c1)COc1cnccc1-2 [Compound 46] | A (substantial protection (A) >50%) | 100 to 1000 nM
O=C(NCc1cccc(F)c1)Nc1ccc2c(c1)COc1cnccc1-2 [Compound 47] | A (substantial protection (A) >50%) | 100 to 1000 nM
O=C(CCc1cccnc1)Nc1ccc2c(c1)COc1cnccc1-2 [Compound 50] | A (substantial protection (A) >50%) | 100 to 1000 nM
O=C1C(Cc2cccc3c2CCCC3)CCN1c1ccc2c(c1)COc1cnccc1-2 (stereo not shown) [Compound 56] | B (partial protection (B): 20% to 50%) | 1000 to 10000 nM
O=C1C(Cc2ccc3occc3c2)CCN1c1ccc2c(c1)COc1cnccc1-2 (stereo not shown) [Compound 57] | B (partial protection (B): 20% to 50%) | 100 to 1000 nM
O=C1C(Cc2ccc3ccsc3c2)CCN1c1ccc2c(c1)COc1cnccc1-2 (stereo not shown) [Compound 58] | B (partial protection (B): 20% to 50%) | 1000 to 10000 nM
O=C1C(Cc2cc3ccccc3o2)CCN1c1ccc2c(c1)COc1cnccc1-2 (stereo not shown) [Compound 59] | B (partial protection (B): 20% to 50%) | 1000 to 10000 nM
O=C1C(Cc2ccncc2)CCN1c1ccc2c(c1)COc1cnccc1-2 (stereo not shown) [Compound 62] | A (substantial protection (A) >50%) | 100 to 1000 nM
O=C(NCc1ccc(Cl)cc1)Nc1ccc2c(c1)COc1cnccc1-2 [Compound 63] | A (substantial protection (A) >50%) | 100 to 1000 nM
O=C(NCc1ccc(Cl)c(Cl)c1)Nc1ccc2c(c1)COc1cnccc1-2 [Compound 65] | B (partial protection (B): 20% to 50%) | 1000 to 10000 nM
O=C(NCc1cc(F)c(F)c(F)c1)Nc1ccc2c(c1)COc1cnccc1-2 [Compound 67] | A (substantial protection (A) >50%) | < 100 nM
O=C(NCc1ccc(Cl)c(F)c1)Nc1ccc2c(c1)COc1cnccc1-2 [Compound 68] | A (substantial protection (A) >50%) | 100 to 1000 nM
N#Cc1ccc(CNC(=O)Nc2ccc3c(c2)COc2cnccc2-3)cc1 [Compound 70] | B (partial protection (B): 20% to 50%) | 1000 to 10000 nM
O=C(NCc1ccccc1)Nc1ccc2c(c1)COc1cnccc1-2 [Compound 71] | B (partial protection (B): 20% to 50%) | 1000 to 10000 nM
Cc1ccc(CNC(=O)Nc2ccc3c(c2)COc2cnccc2-3)cc1 [Compound 72] | B (partial protection (B): 20% to 50%) | 100 to 1000 nM
CC(Cc1ccc(F)cc1)C(=O)Nc1ccc2c(c1)COc1cnccc1-2 (stereo not shown) [Compound 73] | A (substantial protection (A) >50%) | 100 to 1000 nM
O=C(COc1ccc(F)cc1)Nc1ccc2c(c1)COc1cnccc1-2 [Compound 74] | B (partial protection (B): 20% to 50%) | < 100 nM
